Measured values reported in ChEMBL document CHEMBL5465560, “Selectivity Literature for EUbOPEN Chemogenomic Library” (2024).

Columns and labels:
[1] = molecular target: Proto-oncogene tyrosine-protein kinase receptor Ret (Homo sapiens, UniProt P07949); test: (§1) Selectivity interaction (SelectScreen profiling (Invitrogen)) EUB0000607a RET; conditions: at 2 µM
[2] = tested on: Proto-oncogene tyrosine-protein kinase receptor Ret (Homo sapiens), P07949 [Y791F]; test: as §1; conditions: at 2 µM
[3] = tested on: Proto-oncogene tyrosine-protein kinase receptor Ret (Homo sapiens), P07949 [V804L]; test: as §1; conditions: at 2 µM
[4] = molecular target: Cyclin-dependent kinase 1 (Homo sapiens) (UniProt P06493); test: Selectivity interaction (ActivX KiNativ screen (kinase selectivity in THP-1 cell lysates)) EUB0000639a CDK1; format: subcellular; conditions: lysate
[5] = molecular target: T1, Mitogen-activated protein kinase kinase kinase kinase 2 (Homo sapiens) (UniProt Q12851); test: Selectivity interaction (KinomeScan (DiscoverX)) EUB0000695a MAP4K2; conditions: at 100 nM
T1 sequence (whole entry): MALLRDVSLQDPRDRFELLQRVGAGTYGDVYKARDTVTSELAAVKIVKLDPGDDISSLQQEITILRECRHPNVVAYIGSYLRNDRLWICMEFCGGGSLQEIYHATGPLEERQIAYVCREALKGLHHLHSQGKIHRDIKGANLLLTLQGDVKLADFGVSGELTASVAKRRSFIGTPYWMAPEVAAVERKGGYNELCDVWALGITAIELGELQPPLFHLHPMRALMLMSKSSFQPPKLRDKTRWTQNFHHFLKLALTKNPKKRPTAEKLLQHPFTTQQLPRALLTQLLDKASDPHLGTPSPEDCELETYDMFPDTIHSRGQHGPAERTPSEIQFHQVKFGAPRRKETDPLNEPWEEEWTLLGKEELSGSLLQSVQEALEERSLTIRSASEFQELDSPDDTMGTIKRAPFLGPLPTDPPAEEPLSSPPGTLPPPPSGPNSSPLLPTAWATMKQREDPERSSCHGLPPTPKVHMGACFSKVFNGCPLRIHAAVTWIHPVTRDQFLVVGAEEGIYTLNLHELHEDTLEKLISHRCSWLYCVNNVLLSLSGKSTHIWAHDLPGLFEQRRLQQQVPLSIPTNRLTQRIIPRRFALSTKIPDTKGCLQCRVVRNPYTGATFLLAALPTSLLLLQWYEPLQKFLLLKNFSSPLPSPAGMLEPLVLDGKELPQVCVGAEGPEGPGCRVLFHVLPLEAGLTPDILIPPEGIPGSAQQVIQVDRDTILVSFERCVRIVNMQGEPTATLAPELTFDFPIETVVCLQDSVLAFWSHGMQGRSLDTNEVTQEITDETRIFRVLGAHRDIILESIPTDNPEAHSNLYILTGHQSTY

[6] = molecular target: T2, Ephrin type-B receptor 2 (Homo sapiens) (UniProt P29323); test: Selectivity interaction (Millipore kinase profiler) EUB0000124b EPHB2; conditions: at 10 µM
T2 sequence (whole entry): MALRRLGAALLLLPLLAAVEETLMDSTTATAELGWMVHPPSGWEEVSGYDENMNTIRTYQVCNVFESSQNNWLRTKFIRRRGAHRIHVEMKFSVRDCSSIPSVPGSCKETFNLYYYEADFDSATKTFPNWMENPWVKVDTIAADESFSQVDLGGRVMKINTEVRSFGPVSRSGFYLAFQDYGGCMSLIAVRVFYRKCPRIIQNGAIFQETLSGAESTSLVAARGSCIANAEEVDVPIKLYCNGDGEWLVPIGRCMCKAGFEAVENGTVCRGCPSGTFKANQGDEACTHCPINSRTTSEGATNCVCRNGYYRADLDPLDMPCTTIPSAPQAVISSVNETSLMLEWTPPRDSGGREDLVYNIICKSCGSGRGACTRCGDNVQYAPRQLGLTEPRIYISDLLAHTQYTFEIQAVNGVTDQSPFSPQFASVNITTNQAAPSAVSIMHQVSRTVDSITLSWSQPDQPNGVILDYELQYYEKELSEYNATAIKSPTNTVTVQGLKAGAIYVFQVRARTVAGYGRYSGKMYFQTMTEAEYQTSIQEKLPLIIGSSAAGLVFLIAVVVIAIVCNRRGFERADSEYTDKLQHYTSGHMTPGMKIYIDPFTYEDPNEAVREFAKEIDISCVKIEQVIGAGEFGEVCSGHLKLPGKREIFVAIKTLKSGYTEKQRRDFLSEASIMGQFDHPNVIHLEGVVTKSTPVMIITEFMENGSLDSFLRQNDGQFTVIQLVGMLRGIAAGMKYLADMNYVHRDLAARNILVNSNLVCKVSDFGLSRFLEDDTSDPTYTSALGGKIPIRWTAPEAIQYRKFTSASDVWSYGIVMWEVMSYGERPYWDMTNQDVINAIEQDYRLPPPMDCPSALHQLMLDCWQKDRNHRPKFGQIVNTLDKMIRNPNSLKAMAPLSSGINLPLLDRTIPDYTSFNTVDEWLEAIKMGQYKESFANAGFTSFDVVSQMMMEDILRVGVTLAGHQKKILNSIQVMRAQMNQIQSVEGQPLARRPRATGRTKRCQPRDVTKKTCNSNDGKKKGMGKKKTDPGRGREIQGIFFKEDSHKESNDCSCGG

[7] = molecular target: Serine/threonine-protein kinase PAK 6 (Homo sapiens) (UniProt Q9NQU5); test: Selectivity interaction (Ambit KINOMEscan and KiNATiv profiling in Jurkat cells) EUB0000090b PAK6; format: cell-based; conditions: at 1 µM
[8] = molecular target: 5'-AMP-activated protein kinase catalytic subunit alpha-1 (Homo sapiens, UniProt Q13131); test: Selectivity interaction (Ambit KINOMEscan and KiNATiv profiling in Jurkat cells) EUB0000090b PRKAA1; format: cell-based; conditions: at 1 µM
[9] = molecular target: T3, Serine/threonine-protein kinase Nek2 (Homo sapiens) (UniProt P51955); test: Selectivity interaction (Kinase panel (DSF assay)) EUB0001558a NEK2
T3 sequence (whole entry): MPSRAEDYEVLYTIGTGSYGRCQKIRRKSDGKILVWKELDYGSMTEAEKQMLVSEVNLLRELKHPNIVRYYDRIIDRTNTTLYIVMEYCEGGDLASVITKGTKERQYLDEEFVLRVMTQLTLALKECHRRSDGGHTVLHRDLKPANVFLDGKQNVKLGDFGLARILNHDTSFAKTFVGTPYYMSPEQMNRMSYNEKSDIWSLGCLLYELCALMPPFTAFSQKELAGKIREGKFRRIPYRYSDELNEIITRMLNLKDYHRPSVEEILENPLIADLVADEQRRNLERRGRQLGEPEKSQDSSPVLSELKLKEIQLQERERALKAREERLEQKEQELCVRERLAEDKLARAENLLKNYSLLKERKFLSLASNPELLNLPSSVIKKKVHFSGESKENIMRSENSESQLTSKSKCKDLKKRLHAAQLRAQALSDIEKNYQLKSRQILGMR

[10] = molecular target: Serine/threonine-protein kinase 3 (Homo sapiens, UniProt Q13188); test: Selectivity interaction (ADP-Glo kinase assay) EUB0001619a STK3
Sequence of Serine/threonine-protein kinase 3 (Q13188 whole entry): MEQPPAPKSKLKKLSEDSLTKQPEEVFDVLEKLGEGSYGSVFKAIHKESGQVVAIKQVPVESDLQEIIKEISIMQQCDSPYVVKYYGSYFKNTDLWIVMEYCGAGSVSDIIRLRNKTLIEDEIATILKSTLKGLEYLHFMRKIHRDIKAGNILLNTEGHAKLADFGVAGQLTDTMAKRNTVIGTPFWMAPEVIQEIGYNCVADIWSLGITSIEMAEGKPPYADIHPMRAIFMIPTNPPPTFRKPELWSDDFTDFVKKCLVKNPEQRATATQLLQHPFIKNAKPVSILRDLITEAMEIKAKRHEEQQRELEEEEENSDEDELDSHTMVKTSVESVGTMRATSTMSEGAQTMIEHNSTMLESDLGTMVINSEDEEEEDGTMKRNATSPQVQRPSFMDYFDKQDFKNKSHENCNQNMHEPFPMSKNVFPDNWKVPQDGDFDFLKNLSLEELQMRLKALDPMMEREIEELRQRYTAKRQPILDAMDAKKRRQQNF

Sequence of Cyclin-dependent kinase 1 (Homo sapiens) (P06493 whole entry, looked up): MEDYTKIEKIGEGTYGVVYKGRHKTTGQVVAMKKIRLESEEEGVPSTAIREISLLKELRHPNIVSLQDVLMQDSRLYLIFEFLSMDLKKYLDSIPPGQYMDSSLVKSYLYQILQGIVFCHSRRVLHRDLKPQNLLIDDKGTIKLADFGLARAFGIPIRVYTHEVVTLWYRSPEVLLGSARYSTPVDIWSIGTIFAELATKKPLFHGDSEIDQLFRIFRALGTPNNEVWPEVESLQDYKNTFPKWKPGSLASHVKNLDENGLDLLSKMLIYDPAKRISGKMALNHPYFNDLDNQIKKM
Sequence of Proto-oncogene tyrosine-protein kinase receptor Ret (Homo sapiens), P07949 [Y791F] (P07949 whole entry Y791F): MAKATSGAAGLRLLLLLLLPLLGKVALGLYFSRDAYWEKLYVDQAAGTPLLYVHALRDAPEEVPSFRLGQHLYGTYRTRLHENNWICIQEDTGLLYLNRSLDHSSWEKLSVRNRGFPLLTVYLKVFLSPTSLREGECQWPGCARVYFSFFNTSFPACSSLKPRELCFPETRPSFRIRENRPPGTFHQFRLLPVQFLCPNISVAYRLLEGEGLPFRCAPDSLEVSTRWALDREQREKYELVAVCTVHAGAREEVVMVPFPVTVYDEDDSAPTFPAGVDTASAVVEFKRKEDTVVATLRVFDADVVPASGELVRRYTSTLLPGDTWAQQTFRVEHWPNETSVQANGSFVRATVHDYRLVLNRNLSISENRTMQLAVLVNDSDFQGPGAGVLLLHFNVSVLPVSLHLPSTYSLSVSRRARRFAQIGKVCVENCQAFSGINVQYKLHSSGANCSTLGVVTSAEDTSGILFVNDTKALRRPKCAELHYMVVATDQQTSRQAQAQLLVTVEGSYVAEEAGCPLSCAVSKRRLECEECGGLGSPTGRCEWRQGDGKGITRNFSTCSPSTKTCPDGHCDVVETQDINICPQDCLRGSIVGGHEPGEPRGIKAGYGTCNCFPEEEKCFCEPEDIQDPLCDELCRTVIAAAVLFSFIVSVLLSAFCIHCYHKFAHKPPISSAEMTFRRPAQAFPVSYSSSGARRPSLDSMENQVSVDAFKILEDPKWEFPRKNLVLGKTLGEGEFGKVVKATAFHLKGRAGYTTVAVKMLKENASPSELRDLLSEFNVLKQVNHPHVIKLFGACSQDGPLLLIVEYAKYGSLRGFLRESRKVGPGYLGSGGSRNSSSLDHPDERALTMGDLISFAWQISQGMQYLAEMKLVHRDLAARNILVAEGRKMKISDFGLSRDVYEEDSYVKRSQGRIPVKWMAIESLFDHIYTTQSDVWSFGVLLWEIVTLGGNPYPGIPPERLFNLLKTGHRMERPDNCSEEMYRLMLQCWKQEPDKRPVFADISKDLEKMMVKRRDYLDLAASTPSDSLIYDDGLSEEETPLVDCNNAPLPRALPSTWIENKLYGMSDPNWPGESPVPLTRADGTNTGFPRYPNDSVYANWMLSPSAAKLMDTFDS
Sequence of Proto-oncogene tyrosine-protein kinase receptor Ret (P07949 whole entry): as the sequence (P07949 whole entry Y791F) above, with F791Y counted along it
Sequence of 5'-AMP-activated protein kinase catalytic subunit alpha-1 (Q13131 whole entry, looked up): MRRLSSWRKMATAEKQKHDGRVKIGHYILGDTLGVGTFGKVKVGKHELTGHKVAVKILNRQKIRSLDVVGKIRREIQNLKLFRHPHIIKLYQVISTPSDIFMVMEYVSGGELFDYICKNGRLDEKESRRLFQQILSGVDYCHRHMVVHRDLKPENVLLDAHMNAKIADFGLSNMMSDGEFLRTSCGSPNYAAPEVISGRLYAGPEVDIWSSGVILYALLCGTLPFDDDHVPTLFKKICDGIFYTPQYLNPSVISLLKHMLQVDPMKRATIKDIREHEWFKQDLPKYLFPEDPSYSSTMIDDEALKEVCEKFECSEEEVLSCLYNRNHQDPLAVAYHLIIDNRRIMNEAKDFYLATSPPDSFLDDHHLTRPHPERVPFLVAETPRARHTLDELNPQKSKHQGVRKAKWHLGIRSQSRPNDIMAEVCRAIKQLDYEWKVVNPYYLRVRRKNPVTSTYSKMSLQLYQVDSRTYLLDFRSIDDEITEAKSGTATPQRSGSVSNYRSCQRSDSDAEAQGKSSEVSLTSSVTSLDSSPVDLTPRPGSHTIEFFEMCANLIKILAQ
Sequence of Serine/threonine-protein kinase PAK 6 (Homo sapiens) (Q9NQU5 whole entry, looked up): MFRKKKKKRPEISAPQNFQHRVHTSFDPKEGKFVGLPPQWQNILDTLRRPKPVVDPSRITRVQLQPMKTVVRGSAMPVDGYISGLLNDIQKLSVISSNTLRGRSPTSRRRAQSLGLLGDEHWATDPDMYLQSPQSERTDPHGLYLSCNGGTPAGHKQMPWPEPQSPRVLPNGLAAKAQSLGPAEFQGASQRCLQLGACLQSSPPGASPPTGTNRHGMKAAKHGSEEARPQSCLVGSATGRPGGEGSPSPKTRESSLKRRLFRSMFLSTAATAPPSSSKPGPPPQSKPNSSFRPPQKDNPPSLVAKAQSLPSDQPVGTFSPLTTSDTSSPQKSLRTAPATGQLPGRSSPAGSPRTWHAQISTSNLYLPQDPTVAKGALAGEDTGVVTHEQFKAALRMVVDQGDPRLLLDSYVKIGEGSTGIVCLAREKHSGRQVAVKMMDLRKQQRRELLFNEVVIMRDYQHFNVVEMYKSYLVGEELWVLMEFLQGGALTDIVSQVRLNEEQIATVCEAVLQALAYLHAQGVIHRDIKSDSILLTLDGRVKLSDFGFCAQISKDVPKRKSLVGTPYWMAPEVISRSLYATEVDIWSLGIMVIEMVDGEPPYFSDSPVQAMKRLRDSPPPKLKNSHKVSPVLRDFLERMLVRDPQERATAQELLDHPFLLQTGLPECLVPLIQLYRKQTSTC
Sequence of Proto-oncogene tyrosine-protein kinase receptor Ret (Homo sapiens), P07949 [V804L] (P07949 whole entry V804L): as the sequence (P07949 whole entry Y791F) above, with F791Y, V804L counted along it

CNC(=O)Nc1ccc(-c2nc(N3CC4CCC(C3)O4)c3cnn(C4CCC5(CC4)OCCO5)c3n2)cc1
% of inhibition [1]: 4%
% of inhibition [2]: 2%
% of inhibition [3]: 2%

CC[C@@H]1[C@H](F)C(=O)N[C@@H]1COc1nccc2cc(C(N)=O)c(OC)cc12 [ZIMLOVISERTIB]
% of inhibition ([4]; at 0.01 µM): 2.4%
% of inhibition ([4]; at 0.04 µM): 3.3%
% of inhibition ([4]; at 0.2 µM): 14.8%
% of inhibition ([4]; at 1 µM): 3.1%
% of inhibition ([4]; at 5 µM): -9%

Cc1cc(F)c(C(=O)Nc2cccc(-c3nncn3C(C)C)n2)cc1-n1cnc(C2CC2)c1
% of control [5]: 100%

CC(=O)Nc1cccc(-n2c(=O)n(C3CC3)c(=O)c3c(Nc4ccc(I)cc4F)n(C)c(=O)c(C)c32)c1
% of control [6]: 107%

CN(C)C/C=C/C(=O)Nc1ccc(C(=O)N2CCCC(Nc3ncc(Cl)c(-c4c[nH]c5ccccc45)n3)C2)cc1 (centres undefined)
% of control [7]: 87%
% of control [8]: 79%

CC(C)(O)[C@H](F)CN1Cc2cc(NC(=O)c3cnn4cccnc34)c(N3CCOCC3)cc2C1=O
dTM [9]: 0.4 K

N#Cc1cccc(-c2c[nH]c3ncnc(N4CCOCC4)c23)c1
IC50 [10]: 76 nM
